Assay results published in patent publication US9120776B2, “Condensed heterocyclic compound” (Takeda Pharmaceutical Company Limited, priority 2011, dated 2015).
Read-outs that look alike come from different tables or passages of the source.

Tests used:
RORγt [1] = target: T1, RORγt (Homo sapiens, UniProt P51449); test: Jurkat Reporter Test (human IL-17 ROR response element luciferase, RORγt vector); format: cell-based; settings: read-out: inhibitory rate (%)
T1 sequence (P51449 1-497 isoform P51449-2): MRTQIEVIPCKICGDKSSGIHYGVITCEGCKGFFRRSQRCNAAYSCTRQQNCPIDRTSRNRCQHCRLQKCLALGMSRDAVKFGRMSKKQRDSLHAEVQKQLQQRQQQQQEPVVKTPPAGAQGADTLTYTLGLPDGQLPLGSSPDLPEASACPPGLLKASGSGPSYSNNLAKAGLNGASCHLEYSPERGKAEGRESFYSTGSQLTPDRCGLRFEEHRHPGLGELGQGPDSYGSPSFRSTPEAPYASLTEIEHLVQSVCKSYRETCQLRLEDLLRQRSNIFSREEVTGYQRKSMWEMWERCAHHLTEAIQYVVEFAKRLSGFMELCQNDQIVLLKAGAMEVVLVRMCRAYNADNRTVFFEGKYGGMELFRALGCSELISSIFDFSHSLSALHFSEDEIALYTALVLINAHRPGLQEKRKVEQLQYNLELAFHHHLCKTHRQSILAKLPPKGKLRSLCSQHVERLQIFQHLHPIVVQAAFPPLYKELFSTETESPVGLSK
Protocol: The Jurkat cells used for the reporter test were cultured in a culture medium (RPMI (Invitrogen), 10% FCS (AusGeneX), 100 U/mL penicillin, 100 μg/mL streptomycin). On the day of the test, 4×10^7 cells were recovered by a centrifugal operation (1000 rpm, 5 min.) and suspended in PBS (phosphate buffered saline) (Invitrogen). Thereafter, the cells were recovered again by a centrifugal operation, and suspended in 2 mL of R buffer (NEON transfection kit, Invitrogen). […] Gene transfer was performed by Electroporation apparatus (NEON, Invitrogen) under the conditions of pulse voltage 1350 V, interval 10 milliseconds, number of times 3. The cells after gene transfer were suspended in 40 mL of a reaction medium (RPMI, 10% Lipid reduced FCS (HyClone), 10 mM HEPES (pH 7.5), 100 U/mL penicillin, 100 μg/mL streptomycin, 5 μM lovastatin), and plated in a 96 well plate by 90 μL each. A test compound diluted with the reaction medium was added by 10 μL each, and the cells were cultured overnight in an incubator. Bright-Glo (Promega) was added by 100 μL each, and the mixture was stirred at room temperature for 10 min, and the luminescence level was measured by Envision (PerkinElmer).

RORγt [2] = target: T1, RORγt; test: Cofactor Recruitment Test (Alpha Screen, biotinylated SRC-1 peptide); format: biochemical; set-up: histidine tag (implied by the Histidine Detection Kit); settings: signal value inhibitory rate at test compound 1 μM
Protocol: Cofactor recruitment test was performed by Alpha Screen (Histidine Detection Kit, PerkinElmer) method. First, a test compound diluted with an assay buffer (50 mM Tris-HCl (pH 7.5), 50 mM KCl, 1 mM DTT, 0.1% BSA) was added to a 384 well plate by 5 μL each. […] The mixture was stood in a dark place for 1 hr, and the signal value was measured by Envision (PerkinElmer).

RORγt [3] = target: T1, RORγt; test: RORγt Binding Test (TR-FRET, fluorescent-labeled cholesterol); set-up: histidine tag (implied by the Histidine Detection Kit); settings: binding inhibitory rate of fluorescent-labeled cholesterol to RORγt at test compound 1 μM
Protocol: The binding activity of the test compound to RORγt was measured by a time resolved fluorescence resonance energy transfer method (TR-FRET) utilizing histidine-tagged RORγt, fluorescent-labeled cholesterol (BODIPY-cholesterol, AVIVA) and terbium-labeled anti-histidine tag antibody (Invitrogen). First, a test compound diluted with an assay buffer (20 mM Tris-HCl (pH 7.5), 100 mM NaCl, 1 mM DTT, 0.1% BSA) was added to a 384 well plate by 3 μL each. Then, RORγt diluted with an assay buffer to 240 nM was added by 3 μL each, after which fluorescent-labeled cholesterol diluted with the assay buffer to 12 μM was added by 3 μL each, and the mixture was stood at room temperature for 20 min. Thereafter, a terbium-labeled anti-histidine tag antibody diluted with the assay buffer to 8 nM was added by 3 μL each. The mixture was stood at room temperature for 20 min, and fluorescence intensity (excitation wavelength 320 nm, fluorescence wavelength 520 nm, delay time 100 microseconds) was measured by Envision (PerkinElmer).

Th17 cells = test: Mouse Th17 Cell Differentiation Test (IL-17A in culture supernatant, ELISA); format: cell-based; settings: inhibitory rate at 10 μM of test compound, mouse CD4 positive naive T cells, 4 days, IL-17A by ELISA; for inhibition at 10 µM: 96 h
Protocol: CD4 positive naive T cells were collected from the spleen cells of BALB/c mice (female, 8-11w, Charles River Laboratories Japan, Inc.) using CD4+CD62L+ T Cell Isolation kit II (Miltenyi Biotec). The CD4 positive naive T cells in a 96 well plate (3×10^5 cells/well) were stimulated (37° C. for culture) with anti-mouse CD3ε antibody (Bio X cell) (10 μg/mL, solid phase) and anti-CD28 antibody (Bio X cell) (5 μg/mL) for 4 days in the presence of anti-IFN-γ antibody (BioLegend), anti-IL-4 antibody (BioLegend), anti-IL-2 antibody (BioLegend), IL-6, TGF-β and IL-23 to differentiate into Th17 cells. The compound was dissolved in DMSO and then added thereto. The cells were cultured under these conditions for 4 days, and differentiation of the Th17 cells was evaluated by using the concentration of IL-17A, which was measured by ELISA, in the culture supernatant obtained by centrifugation.

human PBMC = test: IL17 Production Test in Human PBMC; format: cell-based; settings: 72 h, inhibitory rate at 10 μM of test compound, anti-CD3/CD28 stimulation, 3 days, IL-17A by ELISA
Protocol: Peripheral blood mononuclear cells (PBMC) collected from human peripheral blood by a density gradient centrifugation method were stimulated by Dynabeads (registered trade mark; anti-CD3/CD28 antibody) and cultured at 37° C. for 3 days. The compound was dissolved in DMSO and then added thereto. After culture for 3 days under such conditions, the concentration of IL-17A in the culture supernatant obtained by centrifugation was measured by ELISA to evaluate the effect of the compound on IL-17 production.

[4] = luminescence level inhibitory rate at test compound 3 μM, Jurkat cells

SMILES | inhibition at 1 µM (RORγt [2]) [%] | inhibition at 1 µM (RORγt [3]) [%] | inhibition at 3 µM (RORγt [1]; [4]) [%] | inhibition at 3 µM (RORγt [1]; Jurkat) [%] | inhibition at 10 µM (Th17 cells) [%] | inhibition at 10 µM (human PBMC) [%] | inhibition at 10 µM (Th17 cells; Mus musculus, CD4 positive) [%] | inhibitory rate (%) (Th17 cells; 10 µM)
CCn1c2ccccc2c2cc(NC(=O)CC(CC(=O)Nc3ccc(C#N)c(Cl)c3)c3ccccc3)ccc21 (stereo not shown) [Example 39, N-(3-chloro-4-cyanophenyl)-N′-(9-ethyl-9H-carbazol-3-yl)-3-phenylpentanediamide] | 102 | 91.4 |  | 93.2 |  |  |  | 
CCn1c2ccccc2c2cc(NC(=O)CCC(C)C(=O)Nc3ccc(C#N)c(Cl)c3)ccc21 (stereo not shown) [Example 43, N^1-(3-chloro-4-cyanophenyl)-N^5-(9-ethyl-9H-carbazol-3-yl)-2-methylpentanediamide] | 102 | 100 |  | 104 |  |  |  | 
CCn1c2ccccc2c2cc(C(=O)NCC(C)CC(=O)Nc3ccc(C#N)c(Cl)c3)ccc21 (stereo not shown) [Example 48, N-{4-[(3-chloro-4-cyanophenyl)amino]-2-methyl-4-oxobutyl}-9-ethyl-9H-carbazole-3-carboxamide] | 106 | 104 |  | 115 |  | 97.6 | 96.9 | 
CCn1c2ccccc2c2cc(NC(=O)CC(C)CC(=O)Nc3ccc(C#N)c(Cl)c3)ccc21 (stereo not shown) [Example 25, N-(3-chloro-4-cyanophenyl)-N′-(9-ethyl-9H-carbazol-3-yl)-3-methylpentanediamide] |  |  |  |  |  |  | 96.1 | 
CCn1c2ccccc2c2cc(NC(=O)CC(C)CC(=O)Nc3ccc(C#N)cc3)ccc21 (stereo not shown) [Step 1 of Example 15, N^1-(4-cyanophenyl)-N^5-(9-ethyl-9H-carbazol-3-yl)-3-methylpentanediamide] |  |  |  |  | 93.2 |  |  | 
CCn1c2ccccc2c2cc(NC(=O)C3CCC3C(=O)Nc3ccc(C#N)c(Cl)c3)ccc21 (stereo not shown) [Example 40, N-(3-chloro-4-cyanophenyl)-N′-(9-ethyl-9H-carbazol-3-yl)cyclobutane-1,2-dicarboxamide] | 102 | 96.3 |  | 99.3 |  |  |  | 
CCn1c2ccccc2c2cc(NC(=O)C(C)CCC(=O)Nc3ccc(C#N)c(Cl)c3)ccc21 (stereo not shown) [Example 42, N^5-(3-chloro-4-cyanophenyl)-N^1-(9-ethyl-9H-carbazol-3-yl)-2-methylpentanediamide] | 101 | 101 |  | 104 |  |  |  | 
CCn1c2ccccc2c2cc(NC(=O)CC(C)CC(=O)Nc3ccc(C#N)c(Cl)c3)ccc21 (stereo not shown) [Example 26, N-(3-chloro-4-cyanophenyl)-N′-(9-ethyl-9H-carbazol-3-yl)-3-methylpentanediamide] |  |  |  |  |  |  |  | 96.1

More lines, main results first:

inhibition at 1 µM (RORγt [2]) [%] | inhibition at 1 µM (RORγt [3]) [%] | inhibition at 3 µM (RORγt [1]; [4]) [%] | SMILES | inhibition at 3 µM (RORγt [1]; Jurkat) [%] | inhibition at 10 µM (Th17 cells) [%] | inhibition at 10 µM (human PBMC) [%] | inhibition at 10 µM (Th17 cells; Mus musculus, CD4 positive) [%] | inhibitory rate (%) (Th17 cells; 10 µM)
103 | 94.6 | 82.7 | CCn1c2ccccc2c2cc(NC(=O)C[S+]([O-])CC(=O)Nc3ccc(C#N)cc3)ccc21 (stereo not shown) [Example 34, 2-((2-((4-cyanophenyl)amino)-2-oxoethyl)sulfinyl)-N-(9-ethyl-9H-carbazol-3-yl)acetamide] |  | 96.3 |  |  | 
100 | 93.4 | 96.4 | CCn1c2ccccc2c2cc(NC(=O)CC(C)CC(=O)Nc3ccc(C#N)c(OC)c3)ccc21 (stereo not shown) [Example 41, N-(4-cyano-3-methoxyphenyl)-N′-(9-ethyl-9H-carbazol-3-yl)-3-methylpentanediamide] |  |  |  |  | 
101 | 98.9 | 100 | CCn1c2ccccc2c2cc(NC(=O)CSCC(=O)Nc3ccc(C#N)cc3)ccc21 [Example 24, 2-({2-[(4-cyanophenyl)amino]-2-oxoethyl}sulfanyl)-N-(9-ethyl-9H-carbazol-3-yl)acetamide] |  | 96 |  |  | 
98.7 | 62.9 | 77.8 | CCn1c2ccccc2c2cc(NC(=O)CC(C)CCOc3ccc(C#N)c(C)c3)ccc21 (stereo not shown) [Example 44, 5-(4-cyano-3-methylphenoxy)-N-(9-ethyl-9H-carbazol-3-yl)-3-methylpentanamide] |  |  |  |  | 
103 | 88.8 | 110 | CCn1c2ccccc2c2cc(NC(=O)CC(C)CC(=O)Nc3ccc(C#N)cn3)ccc21 (stereo not shown) [Example 50, N-(5-cyanopyridin-2-yl)-N′-(9-ethyl-9H-carbazol-3-yl)-3-methylpentanediamide] |  |  |  |  | 
104 | 93.9 | 109 | CCn1c2ccccc2c2cc(NC(=O)CC(C)CC(=O)Nc3ccc(C#N)nc3)ccc21 (stereo not shown) [Example 49, N-(6-cyanopyridin-3-yl)-N′-(9-ethyl-9H-carbazol-3-yl)-3-methylpentanediamide] |  |  |  |  | 
102 | 91.9 | 99.4 | CCn1c2ccccc2c2cc(NC(=O)CC(C)CCOc3ccc(C#N)c(Cl)c3)ccc21 (stereo not shown) [Example 38, 5-(3-chloro-4-cyanophenoxy)-N-(9-ethyl-9H-carbazol-3-yl)-3-methylpentanamide] |  |  |  |  | 
104 | 82.2 | 102 | CCn1c2ccccc2c2cc(NC(=O)CC(C)CCOc3ccc(C#N)c(C#N)c3)ccc21 (stereo not shown) [Example 55, 5-(3,4-dicyanophenoxy)-N-(9-ethyl-9H-carbazol-3-yl)-3-methylpentanamide] |  |  |  |  | 
